Molecular target: T1, CFTR (Homo sapiens, UniProt P13569, DEL508-508)
T1 construct: Primary CF airway epithelial cells were obtained from the UNC Cystic Fibrosis Tissue Procurement and Cell Culture Core; host or cells: primary CF airway epithelial cells, differentiated at the air-liquid interface
Test: Equivalent current assay in primary CF airway epithelial cells (NAUC, combination with 1st site corrector FDL169 or VX-809)
Format: cell-based
Conditions: 37° C., 24 h; for Nauc @ 10 μM: test compound 10 μM in combination with 1st site corrector VX-809 (3 μM)
Experimental: Primary CF airway epithelial cells were obtained from the UNC Cystic Fibrosis Tissue Procurement and Cell Culture Core. The cells are grown at 37° C. in a Heracell 150i incubator using growth media (BEGM, Fischer). […] Two days before the Ussing assay the mucus on the apical surface of the cells was aspirated after incubating with 200 μL of differentiation media for at least thirty (30) minutes. One day before the Ussing assay test compounds were added to the basolateral surface of the cells at various test concentrations dissolved in DMSO. Duplicate wells were prepared giving a n=3 or n=4 protocol.
Cells were treated for 24 hours with various combinations and concentrations of the test articles, reference standard (3 μM VX809 or 3 μM FDL169, positive control). Compounds stock solutions were prepared in DMSO and diluted 1/1000 into ALI media to their final assay concentration. Cells were treated with combination solutions (2 mL of each dilution) and incubated at 37° C. for 24 h.
For the equivalent current assay, cells on four Transwell (24-well) plates were treated. Each Transwell plate was filled with 200 μl of HBS on the apical surface and 2 ml on the basolateral surface. Plates were placed horizontally in a heated mount at 37° C., and equilibrated for several minutes. Resting current was measured for 15 min and then blocked by the apical addition of 5 μM benzamil. After 20 min, 10 μM forskolin and 1 μM VX770 were added to both the apical and basolateral side to stimulate CFTR. An increase in chloride current is seen as an upward deflection of the trace.
The raw data, current vs. time for the Ussing chamber (sampling interval: 10 s) and voltage vs. time and resistance vs. time for the equivalent current assay (sampling interval: 5 minutes) were transferred to Excel (Microsoft Office Professional, version 14.0.7106.5003) for analysis. […] This average is equivalent to the sum of the average forskolin activated and the average VX770-potentiated currents. The average current measured in vehicle (0.1% DMSO) treated cells, Iv, was subtracted from the current for the test article, ITA, or from the corrector reference standard VX809 (3 uM ISTD). For replicate measurements, the average vehicle subtracted response for the test article, was normalized to the average vehicle subtracted inhibitor response of the reference corrector VX809 (3 μM).
A second endpoint, for the equivalent current assay, evaluated was NAUC, the normalized area under the curve (AUC) measuring the response after addition of forskolin and VX770 to the time point right before the addition of the CFTR inhibitor. The AUC is effectively the average response multiplied by the duration of the response.
NAUCTA=[AUCTA−AUCV,ave]/[AUCVx809r,ave−AUCV,ave] (Equation 2).
Experiments were run with a minimum of n=4 replicates per concentration. Since the distribution for the ratio of two normal distributions is a Cauchy distribution, the median value must be used for the average and the average deviation must be used for the error of all normalized data.
E=Emin+(Emax−Emin)/(1+10^((LogEC5OS)*nH)) (Equation 3)

T1 sequence (P13569 with tags, fused parts or gaps DEL508-508): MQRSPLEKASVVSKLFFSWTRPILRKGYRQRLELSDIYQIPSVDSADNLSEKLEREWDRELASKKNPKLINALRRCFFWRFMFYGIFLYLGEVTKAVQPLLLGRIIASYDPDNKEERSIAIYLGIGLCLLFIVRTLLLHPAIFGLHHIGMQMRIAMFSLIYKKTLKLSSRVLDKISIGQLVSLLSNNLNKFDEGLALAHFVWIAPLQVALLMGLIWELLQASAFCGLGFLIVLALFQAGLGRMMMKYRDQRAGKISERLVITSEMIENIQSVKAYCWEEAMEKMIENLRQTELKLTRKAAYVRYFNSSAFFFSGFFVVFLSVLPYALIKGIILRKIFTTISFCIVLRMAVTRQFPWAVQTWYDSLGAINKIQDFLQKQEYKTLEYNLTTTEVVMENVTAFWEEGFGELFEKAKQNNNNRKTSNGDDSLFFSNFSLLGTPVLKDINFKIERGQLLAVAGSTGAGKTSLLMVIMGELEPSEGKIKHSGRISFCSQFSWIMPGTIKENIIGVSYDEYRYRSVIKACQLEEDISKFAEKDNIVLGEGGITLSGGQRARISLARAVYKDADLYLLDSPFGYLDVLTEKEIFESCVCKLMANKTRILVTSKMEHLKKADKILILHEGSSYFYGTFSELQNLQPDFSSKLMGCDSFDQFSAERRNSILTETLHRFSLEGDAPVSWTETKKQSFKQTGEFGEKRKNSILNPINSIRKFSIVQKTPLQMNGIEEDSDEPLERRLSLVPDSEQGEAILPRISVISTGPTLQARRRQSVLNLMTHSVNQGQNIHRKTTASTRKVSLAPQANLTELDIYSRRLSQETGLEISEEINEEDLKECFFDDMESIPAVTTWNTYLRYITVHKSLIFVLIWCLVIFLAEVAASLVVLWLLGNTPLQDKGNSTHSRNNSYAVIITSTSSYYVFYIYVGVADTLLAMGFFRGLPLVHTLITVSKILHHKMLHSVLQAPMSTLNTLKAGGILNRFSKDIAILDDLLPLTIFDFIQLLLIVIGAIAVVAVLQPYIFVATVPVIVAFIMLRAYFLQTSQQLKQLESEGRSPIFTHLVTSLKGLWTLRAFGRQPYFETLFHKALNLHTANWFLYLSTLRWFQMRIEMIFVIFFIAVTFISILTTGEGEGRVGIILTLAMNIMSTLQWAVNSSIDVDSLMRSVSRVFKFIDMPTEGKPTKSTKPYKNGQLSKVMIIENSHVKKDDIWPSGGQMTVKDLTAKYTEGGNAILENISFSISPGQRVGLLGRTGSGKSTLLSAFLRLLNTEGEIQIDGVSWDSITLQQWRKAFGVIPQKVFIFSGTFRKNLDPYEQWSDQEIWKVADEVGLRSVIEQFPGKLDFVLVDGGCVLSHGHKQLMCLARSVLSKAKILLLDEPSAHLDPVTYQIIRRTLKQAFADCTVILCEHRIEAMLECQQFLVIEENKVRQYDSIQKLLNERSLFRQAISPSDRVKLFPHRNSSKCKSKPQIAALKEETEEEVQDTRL

Row | Compound | Nauc @ 10 μM | Nauc @ 1 μM (test compound 1 μM in combination with 1st site corrector VX-809 (3 μM)) | Nauc @ 3 μM (test compound 3 μM in combination with 1st site corrector VX-809 (3 μM))
1 | CN(C(=O)[C@H]1[C@H]2CC(F)(F)CN2[C@]2(C(=O)Nc3c(Cl)cc(Cl)cc32)[C@H]1C(=O)OCOC(=O)C(C)(C)C)c1cc(Cl)cc(Cl)c1 (racemic) [Example 251a, rac-(pivaloyloxy)methyl (1′R,2′S,3R,7a′R)-5,7-dichloro-1-((3,5-dichlorophenyl)(methyl)carbamoyl)-6′,6′-difluoro-2-oxo-1′,2′,5′,6′,7′,7a′-hexahydrospiro[indoline-3,3′-pyrrolizine]-2′-carboxylate] | + (NAUC “+” refers to an observed NAUC <140% of positive control) |  | 
2 | CN(C(=O)[C@H]1[C@H]2CC(F)(F)CN2[C@]2(C(=O)N(COC(=O)C(C)(C)C)c3c(Cl)cc(Cl)cc32)[C@H]1C(=O)OCOC(=O)C(C)(C)C)c1cc(Cl)cc(Cl)c1 (racemic) [Example 251c, rac-(pivaloyloxy)methyl (1′R,2′S,3R,7a′R)-5,7-dichloro-1-((3,5-dichlorophenyl)(methyl)carbamoyl)-6′,6′-difluoro-2-oxo-1-((pivaloyloxy)methyl)-1′,2′,5′,6′,7′,7a′-hexahydrospiro[indoline-3,3′-pyrrolizine]-2′-carboxylate] | + (NAUC “+” refers to an observed NAUC <140% of positive control) |  | 
3 | CC(=O)OCOC(=O)[C@H]1[C@@H](C(=O)N(C)c2cc(Cl)cc(Cl)c2)[C@H]2CC(F)(F)CN2C12C(=O)Nc1c(Cl)cc(Cl)cc12 (mixture of isomers) [Example 257, acetoxymethyl (1′R,2′S,3R,7a′R)-5,7-dichloro-1-((3,5-dichlorophenyl)(methyl)carbamoyl)-6′,6′-difluoro-2-oxo-1′,2′,5′,6′,7′,7a′-hexahydrospiro[indoline-3,3′-pyrrolizine]-2′-carboxylate] | +++ (NAUC “+++” refers to an observed NAUC>170% of positive control) |  | 
4 | CN(C(=O)[C@H]1[C@@H](C(F)(F)F)NC2(C(=O)N(C)c3c(Cl)cc(Cl)cc32)[C@H]1C(=O)O)c1cc(Cl)cc(Cl)c1 (mixture of isomers) [Example 271, rac-(3′S,4′R,5′S)-5,7-dichloro-4′-((3,5-dichlorophenyl)(methyl)carbamoyl)-1-methyl-2-oxo-5′-(trifluoromethyl)spiro[indoline-3,2′-pyrrolidine]-3′-carboxylic acid] | + (NAUC “+” refers to an observed NAUC <140% of positive control) | + (NAUC “+” refers to an observed NAUC <140% of positive control) | +++ (NAUC “+++” refers to an observed NAUC>170% of positive control)
5 | CC(C)(C)c1cccc(C(C)(C)CNC(=O)[C@H]2[C@H]3CC(F)(F)CN3[C@]3(C(=O)Nc4c(Cl)cc(Cl)cc43)[C@H]2C(=O)O)c1 (racemic) [Example 288b, rac-(1′R,2′S,3R,7a′R)-1′-((2-(3-(tert-butyl)phenyl)-2-methylpropyl)carbamoyl)-5,7-dichloro-6′,6′-difluoro-2-oxo-1′,2′,5′,6′,7′,7a′-hexahydrospiro[indoline-3,3′-pyrrolizine]-2′-carboxylic acid] | + (NAUC “+” refers to an observed NAUC <140% of positive control) |  | 
6 | CN(C(=O)[C@H]1[C@H]2CC(F)(F)CN2[C@]2(C(=O)Nc3c(Cl)cc(Cl)cc32)[C@H]1C(=O)NS(C)(=O)=O)c1cc(Cl)cc(Cl)c1 (relative stereo) [Example 231, rel-(1′R,2′S,3R,7a′R)-5,7-dichloro-N1′-(3,5-dichlorophenyl)-6′,6′-difluoro-N1′-methyl-N2′-(methylsulfonyl)-2-oxo-1′,2′,5′,6′,7′,7a′-hexahydrospiro[indoline-3,3′-pyrrolizine]-1′,2′-dicarboxamide] | + (NAUC “+” refers to an observed NAUC <140% of positive control) |  | 
